“Also recorded” adds a separate entry of the source. Read-outs that look alike come from different tables or passages of the source.
Assays:
Type in all cases: cell-based
[1] = tested on: A549 human pulmonary cancer cells; test: MTT test, proliferation of A549; settings: for activity at 0.01 µM / activity at 1 µM / activity at 100 µM: Homo sapiens, read-out: level of proliferation; for effect on cellular increase, A549 (in words): MTT test
[2] = tested on: human mammary tumoral lineage T-47D; test: Clonogenic test (soft agar), growth of cellular colonies; settings: for activity at 0.1 µM / activity at 0.01 µM / activity at 0.001 µM / activity at 0.0001 µM: 504 h, read-out: mean number of cellular colonies in relation to control; for effect on growth of cellular colonies (in words): soft agar
How it was run: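 T-47D cells of over 90% viability were seeded in 0.3% agar over a 0.5% agar base and kept at 37 °C with 5% CO2 for 21 days after treatment. After staining with MTT (1 mg/ml, at least 3 h), colonies larger than 100 μm² were counted microscopically and expressed as a percentage of control.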

RARγ-ERcassette = test: Transactivation, chimerical receptor RARγ-ERcassette (HeLa); settings: TTNPB 10^-8 M = 100
Text: The HeLa cells are co-transfected by a plasmid which codes for a retinoic receptor in which the C domain of bonding to the DNA is substituted by that of the receptor to RE oestrogens, and a plasmid which places the expression of the luciferase under the control of an ERE (Element of Response to Oestrogens). The expressed chimerical receptors are designated as RARα-ERcassette, RARβ-ERcassette, RARγ-ERcassette and RXRα-ERcassette. The A, B, D, E and F regions of the natural receptor are preserved as well as the transcriptional co-operation between the activation domains AF-1 and AF-2. These transitory transfection experiments follow the method of co-precipitation to calcium phosphate. The HeLa cells are co-transfected by […] of plasmid coding for the chimerical receptor, […] of reporter plasmid and […] of expression vector CMV-β-galactosidase used as an internal control of transfection. 24 hours after the transfection, the cells are incubated for 16 hours with the different effectors.
In this type of chimerical receptor, the C domain of bonding to the DNA of RAR is substituted by that of the receptor to the RE oestrogens. The protein obtained is close to the natural RAR receptor and preserves the transcriptional properties of the AF-1 and AF-2 domains. It modulates the transcription by means of an ERE. This RAR-ERcassette model allows one to observe a transcriptional response to a more physiological ligand.

Gal4-RARβ = test: Transactivation, chimerical receptor Gal4-RARβ (transitory transfection of HeLa); settings: 100% = TTNPB 10^-8 M
[3] = tested on: RARE, endogenic RAR and RXR receptors, HRL+N lineage; test: HRL+N transactivation (RARE-luciferase, stably transfected HeLa); set-up: Emax: dose or concentration left out as unconfirmed; settings: for Emax: Homo sapiens, HeLa
Protocol: MCF-7 cells and HeLa are cultivated in DMFM with phenol red to which 5% foetal calf serum is added. The T47-D cells are cultivated in RPMI to which 10% foetal calf serum is added. The experimental tests are carried out in DMEM without phenol red to which foetal calf serum treated with dextran carbon is added at 3%. […] The experiments using the different retinoids are carried out sheltered from the light so as to avoid any isomerisation.
Certain properties of the retinoids have been determined using more developed cellular models. These models consist of cellular lineages transfected in a stable fashion by recombinant plasmids which place the expression of the gene of the luciferase under the control of different nuclear response elements. […] The tests carried out in duplicate are described below for each of these models.
The cellular lineages HRLN and HRL+N allow one to study the activation of an RARE by endogenic receptors using ligands at physiological concentrations. These lineages derive from HeLa cells transfected in a stable fashion by a reporter gene which places the expression of the gene of the luciferase under the control of a nuclear response element RARE (RARE3 -tk-Luc). The HeLa cells express all the known receptors of the retinoic acid (RARα,β,γ and RXRα,β,γ) with a predominance of RARα and RXRα. The response element RARE used for the HRLN cells corresponds to the sequence of the natural gene of the RARβ receptor (GGTTCAnnnnnAGTTCA). The HRL+N cells comprise the sequence GAGTGAnnnnnCGGTGA.
The HRL+N lineage allows one to visualise a co-activation of the RAR and RXR receptors at the level of the RAR-RXR hetero-dimer.

[4] = tested on: Gal4-RAR (RARα, RARβ, RARγ); test: Chimerical receptors Gal4-RAR, overall profile
[5] = Homo sapiens, T47D, T-47D, 10^-7 M, 21 days, control = 100%
[6] = Homo sapiens, T47D, T-47D, 10^-8 M, 21 days, control = 100%
[7] = Homo sapiens, T47D, T-47D, 10^-9 M, 21 days, control = 100%
[8] = Homo sapiens, T47D, T-47D, 10^-10 M, 21 days, control = 100%
[9] = A549, 10^-4 M, 72 h, control = 100%
[10] = A549, 10^-6 M, 72 h, control = 100%
[11] = A549, 10^-8 M, 72 h, control = 100%
[12] = read-out: HRL+N transactivation, E max (Table 27)

SMILES | activity at 0.1 µM [2, 5] [%] | activity at 0.01 µM [2, 6] [%] | activity at 0.001 µM [2, 7] [%] | activity at 0.0001 µM [2, 8] [%] | effect on growth of cellular colonies (in words) ([2]; T-47D) | RAR-ERcassette RARγ transactivation (RARγ-ERcassette; 10^-6 M) [%] | RAR-ERcassette RARγ transactivation (RARγ-ERcassette; 10^-7 M) [%] | RAR-ERcassette RARγ transactivation (RARγ-ERcassette; 10^-8 M) [%] | RAR-ERcassette RARγ transactivation (RARγ-ERcassette; 10^-9 M) [%] | activity at 100 µM [1, 9] [%] | activity at 1 µM [1, 10] [%] | activity at 0.01 µM [1, 11] [%] | effect on cellular increase, A549 (in words) [1] | GAL4-RAR RARβ transactivation (Gal4-RARβ; 10^-6 M) [%] | HRL+N transactivation (in words) [3] | Gal-RAR agonist profile (in words) [4] | GAL4-RAR RARβ transactivation (Gal4-RARβ; 10^-7 M) [%] | other results
CC(C=C/C=C(C)\C=C\C1=C(C)CCCC1(C)C)=CC(=O)O [CB13407, 9-cis retinoic acid, reference compound] | 6.7 | 45.6 | 52.8 | 54.9 | significant and dose dependent inhibiting activity | 157 | 108 | 56 | 11 | – | – | – | – | – | – | – | – | activity at 0.01 µM ([1]; A549, 72 h): 104%; activity at 1 µM ([1]; A549, 72 h): 102%; activity at 100 µM ([1]; A549, 72 h): 38%
C/C(=C\c1ccc2c(c1)C(C)(C)CCC2(C)C)c1ccc(C(=O)Nc2nnn[nH]2)cc1 [CB73364] | – | 10.3 ± 2.8 | 54.9 ± 5.8 | 99.3 ± 7.8 | inhibit the growth of the cellular colonies | 78 | – | – | – | 0 | 151 | 156 | a stimulation of the cellular increase | – | – | – | – | inhibition at 0.01 µM ([2]; Homo sapiens, T47D, T-47D, 10^-8 M, read-out: inhibition of colony growth): 69.7%
C/C(=C/c1ccc2c(c1)C(C)(C)CCC2(C)C)c1ccc(C(=O)O)nc1 [CB16279, (Z) 5-[1-(5,6,7,8-tetrahydro-5,5,8,8-tetramethyl-2-naphthalenyl)-2-propenyl]pyridinyl-2-carboxylic acid] | 102 ± 3.4 | – | 110 ± 1.5 | – | does not induce any significant modification in the growth of the cellular colonies | 71 | 15 | – | – | – | – | – | – | 47 | bring about a transactivation greater than RAR selective agonists (TTNPB) | partial agonists at 1 μM for the three RAR receptors | – | –
C/C(=C\c1ccc(C(=O)O)cc1)c1ccc2c(c1)C(C)(C)CCC2(C)C [TTNPB, reference compound] | – | – | – | – | more active than the product CB36493 of the cis series (Z) | – | – | – | 66 | – | – | – | – | – | – | good RAR agonists | – | activity at 0.0001 µM ([2]; Homo sapiens, T47D): 34.1%; activity at 0.001 µM ([2]; Homo sapiens, T47D): 5.5%; activity at 0.01 µM ([2]; Homo sapiens, T47D): 2.1%; activity at 0.1 µM ([2]; Homo sapiens, T47D): 1.3%; inhibition at 0.0001 µM ([2]; Homo sapiens, T47D, read-out: inhibition of colony growth): 66%; effect on growth of cellular colonies (in words) ([2]; T-47D, listed as CB01570): inhibits very strongly, in a significant and dose dependent manner the growth of cellular colonies
C/C(=C/c1ccc2c(c1)C(C)(C)CCC2(C)C)c1ccc(C(=O)O)cc1 [CB28628, reference compound] | 21.4 | 97.6 | 89.2 | – | strongly and significantly inhibits the growth of the cellular colonies at the concentration of 10^-7 M but very rapidly loses its activity beyond the concentration of 10^-8 M | 92 | 87 | 55 | – | 12.4 | 93.4 | 109 | – | – | induces a transactivation maximum greater than that of TTNPB | completely agonistic for the three types of RAR receptors | 102 | Emax [3, 12]: 158%
CC1(C)CCC(C)(C)c2cc(/C=C(\c3ccc(C(=O)O)cc3)C(F)(F)F)ccc21 [CB36493, (E) 4-[1-trifluoromethyl-2-(5,6,7,8-tetrahydro-5,5,8,8-tetramethyl-2-naphthalenyl)-1-ethenyl]benzoic acid] | – | 17.4 ± 2 | 24.8 ± 0.5 | 35.8 ± 3.2 | as active as the reference products CB13407 (9-cis RA) and LGD1069 | 26 | 5 | 0 | – | 10.4 | 93.7 | 98.5 | – | 44 | – | partial agonists at 1 μM for the three RAR receptors | – | –
C/C(=C\c1cc2c(cc1C)C(C)(C)CCC2(C)C)c1ccc(C(=O)O)cc1 [CB71802] | – | 45.2 ± 4.8 | 92.5 ± 9.6 | 104 ± 2.3 | – | – | – | – | – | 12.5 | 86.3 | 80.9 | inhibits the increase of these two pulmonary lineages the most strongly | – | – | – | – | –
CC1(C)CCC(C)(C)c2cc(/C=C(\c3ccc(-c4nnn[nH]4)cc3)C(F)(F)F)ccc21 [CB77402, (E) 5-[4-[1-trifluoromethyl-2-(5,6,7,8-tetrahydro-5,5,8,8-tetramethyl-2-naphthalenyl)-1-ethenyl]phenyl]-1H-tetrazole] | – | – | – | – | – | 8 | 0 | 0 | – | 10.7 | 86 | 93.1 | show activity on the increase of these two lineages | 0 | weak transactivation, less than that of TTNPB; also recorded: with a specific RAR agonist induces a stronger transactivation than that observed for each compound tested separately | not RAR agonists | – | Emax [3, 12]: 33%
Cc1cc2c(cc1C(=O)c1ccc(C(=O)O)cc1)C(C)(C)CCC2(C)C [LGD-CB14499, reference compound] | – | – | – | – | – | 66 | 31 | 13 | – | – | – | – | – | 9 | induce a stronger transactivation with the HRL+N cells | – | 1 | GAL4-RAR RARβ transactivation (Gal4-RARβ; 10^-8 M): 0%
CC1=C(/C=C/C(C)=C/C=C/C(C)=C/C(=O)O)C(C)(C)CCC1 [CB16178, all-trans retinoic acid, reference compound] | – | – | – | – | – | 189 | 122 | 114 | 86 | – | – | – | inhibit the proliferation of the A549 lineage at 10^-6 M and 10^-8 M | 92 | – | good RAR agonists | 93 | activity at 0.01 µM ([1]; A549, 72 h): 78.8%; activity at 1 µM ([1]; A549, 72 h): 89.2%; activity at 100 µM ([1]; A549, 72 h): 22.3%; GAL4-RAR RARβ transactivation (Gal4-RARβ; 10^-8 M): 104%; Emax ([3]; read-out: HRL+N transactivation, Emax): 225%

Reference: patent US6265423A, “Aromatic polycyclic retinoid-type derivatives, method for preparing same, and use thereof for making pharmaceutical and cosmetic compositions” (priority 1996, dated 2001)
